We go through five compounds from ChEMBL document CHEMBL1201862, “PubChem BioAssay data set” (2004).

In assay [1] the target is G-protein coupled receptor 35 (Homo sapiens, UniProt Q9HC97). The assay can be described thus: GPR35 antagonists blocking zaprinast-driven arrestin recruitment, primary screen, imaging, U2OS, beta-arrestin-GFP, zaprinast agonist (AID 2058).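 Note: antagonist potency meaning inhibition of agonist-induced arrestin redistribution.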 It is filed as functional.
In assay [2] the target is DNA (cytosine-5)-methyltransferase 1 (Homo sapiens, UniProt P26358). The assay can be described thus: DNMT1 methyltransferase inhibitors, confirmation, biochemical, fluorescent molecular beacon (AID 602386). It is filed as functional.
For another assay, the system named is BJ. The assay can be described thus: cytotoxicity toward BJ-TERT-LT-ST fibroblasts, dose response, cell-based, RAS-independent, luminescence (AID 1935).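 Note: BJ fibroblasts immortalized with TERT plus LT and ST oncogenes.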 The following applies: Homo sapiens. It is filed as functional.
Assay [3] has as its target Transitional endoplasmic reticulum ATPase (Homo sapiens, UniProt P55072). The assay can be described thus: p97 ATPase inhibitors, dose response, biochemical (AID 1534).
In assay [4] the target is Transitional endoplasmic reticulum ATPase (Homo sapiens, UniProt P55072, C522A). In words: C522A mutant p97 ATPase inhibitors, dose response, counter-screen for p97 inhibitor project, biochemical, luminescence (AID 1544).
Assay [5] deals with T1, Histone-lysine N-methyltransferase NSD2 (Homo sapiens, UniProt O96028).
T1 sequence (O96028 whole entry): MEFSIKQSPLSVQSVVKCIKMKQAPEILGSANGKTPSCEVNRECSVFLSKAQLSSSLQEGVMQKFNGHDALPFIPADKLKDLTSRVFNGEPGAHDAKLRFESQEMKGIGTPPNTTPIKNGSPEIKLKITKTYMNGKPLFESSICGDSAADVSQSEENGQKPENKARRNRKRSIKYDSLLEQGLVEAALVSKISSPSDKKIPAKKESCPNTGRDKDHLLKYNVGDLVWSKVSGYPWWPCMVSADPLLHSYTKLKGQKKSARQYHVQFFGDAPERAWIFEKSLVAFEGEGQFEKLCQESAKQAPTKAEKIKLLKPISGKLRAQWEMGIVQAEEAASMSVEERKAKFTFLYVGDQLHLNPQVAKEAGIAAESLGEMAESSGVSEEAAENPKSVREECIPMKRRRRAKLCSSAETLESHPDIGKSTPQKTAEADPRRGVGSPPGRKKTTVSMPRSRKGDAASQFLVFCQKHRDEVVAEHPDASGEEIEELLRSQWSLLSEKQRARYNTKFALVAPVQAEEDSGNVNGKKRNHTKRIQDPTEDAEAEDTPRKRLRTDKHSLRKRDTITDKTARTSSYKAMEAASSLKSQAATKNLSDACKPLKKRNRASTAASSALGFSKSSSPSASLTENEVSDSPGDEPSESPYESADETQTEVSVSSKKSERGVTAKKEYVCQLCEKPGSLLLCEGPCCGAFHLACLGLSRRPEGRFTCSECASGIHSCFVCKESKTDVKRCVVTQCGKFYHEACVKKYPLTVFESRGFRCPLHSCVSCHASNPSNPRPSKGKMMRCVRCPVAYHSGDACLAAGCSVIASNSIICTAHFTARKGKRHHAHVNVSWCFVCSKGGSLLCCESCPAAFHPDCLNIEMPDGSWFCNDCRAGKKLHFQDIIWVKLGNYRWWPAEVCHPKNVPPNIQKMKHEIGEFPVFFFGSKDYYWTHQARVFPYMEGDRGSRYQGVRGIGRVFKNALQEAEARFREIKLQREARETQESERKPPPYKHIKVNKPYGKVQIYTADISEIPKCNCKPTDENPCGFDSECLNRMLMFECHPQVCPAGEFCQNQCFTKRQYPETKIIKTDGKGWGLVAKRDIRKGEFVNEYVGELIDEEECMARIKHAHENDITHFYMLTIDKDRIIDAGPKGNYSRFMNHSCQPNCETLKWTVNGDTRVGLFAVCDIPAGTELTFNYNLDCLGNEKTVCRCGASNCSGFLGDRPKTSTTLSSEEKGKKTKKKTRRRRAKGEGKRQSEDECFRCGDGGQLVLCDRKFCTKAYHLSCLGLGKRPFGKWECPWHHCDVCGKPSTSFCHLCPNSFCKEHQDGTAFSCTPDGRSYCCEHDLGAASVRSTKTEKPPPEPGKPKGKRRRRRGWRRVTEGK
It is filed as biochemical.

Assay [6] concerns the target Cystic fibrosis transmembrane conductance regulator/Golgi-associated PDZ and coiled-coil motif-containing protein (Homo sapiens, UniProt P13569+Q9HD26). In words: CAL PDZ peptide-binding inhibitors, dose response, biochemical, fluorescence polarization, Cerulean-tagged CAL PDZ, cherry-picks (AID 504773). A general note: In fluorescence polarisation assays a small probe gives low polarisation when free and higher when bound to something large.

Assay [7] is described as follows: insulin promoter down-regulators in MIN6 cells, imaging, high-content screening, mouse beta cells (AID 1628). It is filed as functional.
Assay [8] deals with T2, C-C chemokine receptor type 6 (Homo sapiens, UniProt P51684).
T2 sequence (P51684 whole entry): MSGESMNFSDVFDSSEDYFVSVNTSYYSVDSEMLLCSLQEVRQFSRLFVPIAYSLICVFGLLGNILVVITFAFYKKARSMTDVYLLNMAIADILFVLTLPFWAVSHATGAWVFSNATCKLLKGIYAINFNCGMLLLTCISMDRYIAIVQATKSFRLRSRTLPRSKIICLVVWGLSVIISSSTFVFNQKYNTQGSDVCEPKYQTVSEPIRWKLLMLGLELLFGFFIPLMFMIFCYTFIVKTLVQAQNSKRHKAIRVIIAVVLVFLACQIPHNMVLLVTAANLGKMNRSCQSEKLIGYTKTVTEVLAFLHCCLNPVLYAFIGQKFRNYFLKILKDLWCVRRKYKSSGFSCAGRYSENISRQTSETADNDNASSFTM
The assay can be described thus: CCR6 receptor antagonists, dose response, cell-based, luminescent beta-arrestin readout (AID 504728). It is filed as functional.

A short description of assay [9]: inhibitors of SNCA 5'UTR-driven reporter translation, confirmation, H4 neuroglioma cells, luminescence (AID 1988). It is filed as functional, cell-based.
In assay [10] the target is Dual specificity tyrosine-phosphorylation-regulated kinase 1A (Rattus norvegicus, UniProt Q63470). It is filed as biochemical, Homo sapiens.
Assay [11] in a line: enhancers of respiration in Yfh1-depleted yeast, dose response, Friedreich's ataxia, plus single-dose screen (AID 1465).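 Note: yeast depleted of Yfh1p frataxin homolog grown on glycerol needing respiration; WST-1 tetrazolium dye reduction as measure of cellular dehydrogenase metabolic activity.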 It is filed as functional.

Calls of active or inactive are those of the source. Where only a bound is given, the exact number is not on record here.

Sequence of Transitional endoplasmic reticulum ATPase (Homo sapiens, UniProt P55072) (P55072 whole entry): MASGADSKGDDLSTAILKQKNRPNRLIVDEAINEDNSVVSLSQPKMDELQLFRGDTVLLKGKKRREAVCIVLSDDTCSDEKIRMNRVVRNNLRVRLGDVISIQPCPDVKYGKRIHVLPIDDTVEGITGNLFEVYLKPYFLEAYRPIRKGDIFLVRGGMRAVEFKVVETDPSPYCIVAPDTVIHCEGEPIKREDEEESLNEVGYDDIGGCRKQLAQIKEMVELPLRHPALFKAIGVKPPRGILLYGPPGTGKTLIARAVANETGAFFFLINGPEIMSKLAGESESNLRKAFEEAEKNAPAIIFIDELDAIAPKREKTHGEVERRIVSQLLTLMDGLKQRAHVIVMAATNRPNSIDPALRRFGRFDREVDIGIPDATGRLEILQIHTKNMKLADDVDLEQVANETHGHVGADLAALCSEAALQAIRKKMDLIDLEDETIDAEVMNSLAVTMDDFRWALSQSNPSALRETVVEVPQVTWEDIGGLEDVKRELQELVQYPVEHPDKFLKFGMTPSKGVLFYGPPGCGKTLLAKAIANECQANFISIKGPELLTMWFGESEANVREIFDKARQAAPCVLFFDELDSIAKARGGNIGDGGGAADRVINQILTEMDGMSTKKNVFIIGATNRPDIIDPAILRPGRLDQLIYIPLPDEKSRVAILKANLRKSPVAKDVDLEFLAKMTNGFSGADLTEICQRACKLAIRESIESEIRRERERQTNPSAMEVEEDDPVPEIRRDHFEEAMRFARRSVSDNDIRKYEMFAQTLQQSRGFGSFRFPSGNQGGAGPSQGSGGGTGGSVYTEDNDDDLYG
Sequence of Transitional endoplasmic reticulum ATPase (Homo sapiens, UniProt P55072, C522A) (P55072 2-806 C522A limits assumed): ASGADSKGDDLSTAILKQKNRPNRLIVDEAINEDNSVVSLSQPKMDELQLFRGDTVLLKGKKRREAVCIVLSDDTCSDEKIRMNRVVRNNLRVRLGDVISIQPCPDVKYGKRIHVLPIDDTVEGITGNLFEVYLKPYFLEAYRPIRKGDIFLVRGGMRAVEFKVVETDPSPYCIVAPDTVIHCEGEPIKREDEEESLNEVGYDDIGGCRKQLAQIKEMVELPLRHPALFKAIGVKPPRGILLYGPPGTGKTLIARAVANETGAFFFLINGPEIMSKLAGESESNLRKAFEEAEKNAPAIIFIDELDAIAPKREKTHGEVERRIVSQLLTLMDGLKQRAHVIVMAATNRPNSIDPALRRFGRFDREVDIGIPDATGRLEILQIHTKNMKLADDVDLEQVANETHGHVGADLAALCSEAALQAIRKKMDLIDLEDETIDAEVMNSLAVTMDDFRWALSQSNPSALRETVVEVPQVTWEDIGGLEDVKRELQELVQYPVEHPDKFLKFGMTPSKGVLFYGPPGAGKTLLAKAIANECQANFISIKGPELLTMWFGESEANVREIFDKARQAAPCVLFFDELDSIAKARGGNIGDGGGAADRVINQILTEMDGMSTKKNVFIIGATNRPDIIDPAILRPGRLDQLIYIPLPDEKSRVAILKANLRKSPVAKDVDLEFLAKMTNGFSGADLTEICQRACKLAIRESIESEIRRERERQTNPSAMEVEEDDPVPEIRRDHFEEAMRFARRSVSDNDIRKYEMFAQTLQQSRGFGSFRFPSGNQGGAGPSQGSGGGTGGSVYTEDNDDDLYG
Sequence of G-protein coupled receptor 35 (Q9HC97 whole entry): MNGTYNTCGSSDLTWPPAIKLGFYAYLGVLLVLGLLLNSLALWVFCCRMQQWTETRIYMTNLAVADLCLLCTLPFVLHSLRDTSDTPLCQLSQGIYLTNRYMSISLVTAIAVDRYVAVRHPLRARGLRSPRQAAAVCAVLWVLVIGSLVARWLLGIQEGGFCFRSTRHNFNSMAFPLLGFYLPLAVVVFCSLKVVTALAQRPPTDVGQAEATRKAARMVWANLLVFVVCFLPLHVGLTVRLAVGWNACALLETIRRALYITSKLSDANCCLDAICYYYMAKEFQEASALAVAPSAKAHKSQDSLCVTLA
Sequence of Cystic fibrosis transmembrane conductance regulator/Golgi-associated PDZ and coiled-coil motif-containing protein (P13569 whole entry, other chains not shown): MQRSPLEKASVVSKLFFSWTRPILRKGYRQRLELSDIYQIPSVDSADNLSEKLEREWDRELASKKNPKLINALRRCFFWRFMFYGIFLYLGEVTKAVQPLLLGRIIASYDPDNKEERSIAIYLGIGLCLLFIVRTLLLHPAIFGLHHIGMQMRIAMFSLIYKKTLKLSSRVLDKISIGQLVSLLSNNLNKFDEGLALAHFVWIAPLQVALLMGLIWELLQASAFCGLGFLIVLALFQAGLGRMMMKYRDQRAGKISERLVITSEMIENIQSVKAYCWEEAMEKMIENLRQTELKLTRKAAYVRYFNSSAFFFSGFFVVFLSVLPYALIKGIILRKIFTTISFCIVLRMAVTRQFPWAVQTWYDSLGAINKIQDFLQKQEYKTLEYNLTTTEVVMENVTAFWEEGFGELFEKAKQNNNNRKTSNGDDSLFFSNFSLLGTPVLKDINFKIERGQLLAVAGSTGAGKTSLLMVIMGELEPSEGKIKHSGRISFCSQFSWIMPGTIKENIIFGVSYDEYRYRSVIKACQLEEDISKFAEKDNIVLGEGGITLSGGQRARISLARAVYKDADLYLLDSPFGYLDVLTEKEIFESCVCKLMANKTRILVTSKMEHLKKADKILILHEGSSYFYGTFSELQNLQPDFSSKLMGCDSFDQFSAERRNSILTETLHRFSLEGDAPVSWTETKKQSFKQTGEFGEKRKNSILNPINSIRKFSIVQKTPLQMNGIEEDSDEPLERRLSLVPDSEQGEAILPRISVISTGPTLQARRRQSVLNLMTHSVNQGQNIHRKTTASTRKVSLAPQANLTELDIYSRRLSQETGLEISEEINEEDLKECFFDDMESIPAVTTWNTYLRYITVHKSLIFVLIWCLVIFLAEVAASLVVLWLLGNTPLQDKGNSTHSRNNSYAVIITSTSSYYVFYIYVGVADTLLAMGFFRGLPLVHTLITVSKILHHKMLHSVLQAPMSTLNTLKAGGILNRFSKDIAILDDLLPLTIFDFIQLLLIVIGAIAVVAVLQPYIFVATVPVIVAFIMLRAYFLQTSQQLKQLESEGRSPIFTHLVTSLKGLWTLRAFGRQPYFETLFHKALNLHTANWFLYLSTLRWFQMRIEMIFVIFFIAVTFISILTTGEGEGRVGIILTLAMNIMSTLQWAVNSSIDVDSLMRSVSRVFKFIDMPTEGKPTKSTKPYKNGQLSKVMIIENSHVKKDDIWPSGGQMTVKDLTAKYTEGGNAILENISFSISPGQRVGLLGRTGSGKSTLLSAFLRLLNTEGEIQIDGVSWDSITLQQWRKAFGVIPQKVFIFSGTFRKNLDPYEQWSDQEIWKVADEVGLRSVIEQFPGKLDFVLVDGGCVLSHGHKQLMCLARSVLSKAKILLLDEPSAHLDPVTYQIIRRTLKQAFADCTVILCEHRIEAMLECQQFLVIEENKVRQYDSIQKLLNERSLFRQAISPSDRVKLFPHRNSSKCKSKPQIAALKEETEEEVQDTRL
Sequence of DNA (cytosine-5)-methyltransferase 1 (P26358 whole entry): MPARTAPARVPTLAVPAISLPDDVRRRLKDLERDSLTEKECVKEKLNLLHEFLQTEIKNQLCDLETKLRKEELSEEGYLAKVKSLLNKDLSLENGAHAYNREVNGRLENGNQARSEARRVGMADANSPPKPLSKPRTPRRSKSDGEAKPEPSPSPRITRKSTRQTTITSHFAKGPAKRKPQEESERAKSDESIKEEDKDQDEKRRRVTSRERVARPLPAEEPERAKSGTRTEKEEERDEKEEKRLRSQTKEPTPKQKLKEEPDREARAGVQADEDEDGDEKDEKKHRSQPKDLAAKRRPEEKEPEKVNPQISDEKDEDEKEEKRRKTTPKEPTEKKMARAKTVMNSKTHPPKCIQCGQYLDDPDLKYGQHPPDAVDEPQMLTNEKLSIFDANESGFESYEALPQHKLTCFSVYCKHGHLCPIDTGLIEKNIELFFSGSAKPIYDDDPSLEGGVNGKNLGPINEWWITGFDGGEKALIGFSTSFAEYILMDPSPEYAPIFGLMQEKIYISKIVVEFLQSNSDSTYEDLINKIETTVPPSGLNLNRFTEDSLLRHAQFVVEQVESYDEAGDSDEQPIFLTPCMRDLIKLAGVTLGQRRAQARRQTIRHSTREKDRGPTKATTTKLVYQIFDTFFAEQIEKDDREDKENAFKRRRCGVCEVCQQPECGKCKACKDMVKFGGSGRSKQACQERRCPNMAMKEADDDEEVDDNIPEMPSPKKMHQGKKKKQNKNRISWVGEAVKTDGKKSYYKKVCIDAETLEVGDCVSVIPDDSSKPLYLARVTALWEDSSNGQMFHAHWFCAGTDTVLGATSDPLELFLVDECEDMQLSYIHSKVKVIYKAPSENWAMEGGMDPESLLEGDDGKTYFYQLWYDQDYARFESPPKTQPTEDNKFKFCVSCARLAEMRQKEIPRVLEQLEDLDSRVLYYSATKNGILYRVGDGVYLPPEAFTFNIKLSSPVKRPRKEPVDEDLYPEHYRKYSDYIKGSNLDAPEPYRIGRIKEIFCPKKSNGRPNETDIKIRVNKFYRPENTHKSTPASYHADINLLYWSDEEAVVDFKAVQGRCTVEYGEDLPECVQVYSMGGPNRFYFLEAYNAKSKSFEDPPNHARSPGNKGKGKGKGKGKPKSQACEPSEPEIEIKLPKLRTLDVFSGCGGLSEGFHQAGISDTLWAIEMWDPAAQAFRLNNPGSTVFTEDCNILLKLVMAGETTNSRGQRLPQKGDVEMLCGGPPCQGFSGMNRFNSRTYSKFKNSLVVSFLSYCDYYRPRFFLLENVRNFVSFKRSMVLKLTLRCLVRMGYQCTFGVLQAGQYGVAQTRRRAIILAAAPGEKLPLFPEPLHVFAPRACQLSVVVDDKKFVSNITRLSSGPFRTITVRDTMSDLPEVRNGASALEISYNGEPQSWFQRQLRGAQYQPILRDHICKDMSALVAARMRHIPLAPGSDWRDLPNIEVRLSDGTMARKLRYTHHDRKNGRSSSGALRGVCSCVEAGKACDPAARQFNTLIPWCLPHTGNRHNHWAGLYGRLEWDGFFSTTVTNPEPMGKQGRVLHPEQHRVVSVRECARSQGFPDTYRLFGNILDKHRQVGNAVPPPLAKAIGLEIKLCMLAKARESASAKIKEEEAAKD

`CCc1nnc(NS(=O)(=O)c2ccc(NC(=S)NC(=O)/C=C/c3ccc(C(C)C)cc3)cc2)s1`: the IC50 in assay [1] is 1.59 µM (active); in [2], 6.16 µM (active).
As for `O=C(/C=C/c1ccco1)Nc1ccc(Oc2ccccc2)cc1`, the EC50 with BJ was > 150 µM (inconclusive).
As for `CC1CC(=O)c2c(cc3c(-c4c(O)cc(O)c5c(O)c6c(cc45)OC(C)CC6=O)c(O)cc(O)c3c2O)O1` (configuration not stated) [CEPHALOCHROMIN], the IC50 is recorded as 43.9 µM (not active) in assay [3] and > 50 µM (not active) in [4].
In the case of `COc1ccc(S(=O)(=O)Nc2cc(SCC(=O)O)c(O)c3ccccc23)cc1`, the half-maximal activity concentration (AC50) is 3.56 µM (active) in [5] and 33.1 µM (active) in assay [6].
For `O=C1C(Nc2ccc(O)cc2)=C/C(=N/S(=O)(=O)c2cccs2)c2ccccc21`, the values for the IC50 in assay [7] and in [8] were 0.975 µM (active) and > 66.6 µM (inactive), respectively. For the same compound, the concentration for a half-maximal effect (EC50) in assay [9] is 5.59 µM (active); in assay [11], > 100 µM (active). In addition, the AC50 in assay [10] is 0.883 µM (active).

The term IC50 denotes the point on the concentration scale where inhibition reaches its midpoint. A word on the EC50: it is the concentration that produces a half-maximal response. For orientation: AC50 means the midpoint of the concentration-response curve, whichever way the signal moves.
